Measurements taken from PubChem BioAssay (NCI).
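Following 48 hours of exposure in 96-well plates, responses at five concentrations were used to interpolate endpoints linearly. Definition used: TGI = concentration required for complete inhibition of growth.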

Experiments:
Test in all cases: NCI tumour cell line growth inhibition, 48 h
A498 renal = test system: A498 renal
CAKI-1 renal = test system: CAKI-1 renal
COLO 205 colon = test system: COLO 205 colon
EKVX NSCLC = test system: EKVX NSCLC
MCF7 breast = test system: MCF7 breast
NCI-H460 lung = test system: NCI-H460 lung
OVCAR-4 ovarian = test system: OVCAR-4 ovarian
SF-295 CNS = test system: SF-295 CNS
SN12C renal = test system: SN12C renal
T-47D breast = test system: T-47D breast

| SMILES | TGI (A498 renal) [µM] | TGI (CAKI-1 renal) [µM] | TGI (COLO 205 colon) [µM] | TGI (EKVX NSCLC) [µM] | TGI (MCF7 breast) [µM] | TGI (NCI-H460 lung) [µM] | TGI (OVCAR-4 ovarian) [µM] | TGI (SF-295 CNS) [µM] | TGI (SN12C renal) [µM] | TGI (T-47D breast) [µM] |
| --- | --- | --- | --- | --- | --- | --- | --- | --- | --- | --- |
| O=C1/C(=C/c2cccc(Oc3ccccc3)c2)N=C(c2ccccc2)N1c1nc2ccc(Sc3ccccc3)cc2[nH]1 | 81.2 | > 100 | 31.5 | > 100 | > 100 | 64 | > 100 | 53.7 | 70.5 | > 100 |
| O=C1c2cc([N+](=O)[O-])ccc2NC2C(O)c3ccccc3N12 (stereo unspecified) | 41.8 | 54 | > 100 | 43 | > 100 | 97 | 55.8 | > 100 | > 100 | 49.6 |
| O=C(Cc1nc2ccc(C(=O)c3ccccc3)cc2[nH]c1=O)C(=O)Nc1ccccc1[N+](=O)[O-] | > 100 | > 100 | – | > 100 | > 100 | > 100 | > 100 | > 100 | > 100 | > 100 |
| CC(C)=CC(=O)O[C@@H]1CC(C)(C)CC2C3=CCC4[C@]56CC[C@](O)(OC5)C(C)(C)C6CC[C@@]4(C)C3(C)CC[C@]21C(=O)O (stereo partly specified) | > 100 | > 100 | 50.4 | > 100 | > 100 | > 100 | > 100 | > 100 | > 100 | > 100 |
| Cn1c(N)c(/C=N/NC(=O)CC#N)c(=O)n(C)c1=O | > 100 | > 100 | > 100 | > 100 | > 100 | > 100 | > 100 | > 100 | > 100 | > 100 |
| O=C1CSC2(CC(/C=C/C=C/c3ccccc3)=NN2c2cccc(S(=O)(=O)O)c2)N1c1nc2ccccc2s1 (stereo unspecified) | > 100 | > 100 | > 100 | > 100 | > 100 | > 100 | > 100 | – | > 100 | > 100 |
| C=C(CCOC)CCC1CCCCC(=C)C1=O (stereo unspecified) | > 100 | > 100 | > 100 | > 100 | > 100 | > 100 | > 100 | > 100 | > 100 | > 100 |
| CCCCC[C@H](O)[C@H](C)C=C1SCCCS1 | > 100 | > 100 | > 100 | > 100 | > 100 | – | > 100 | > 100 | > 100 | > 100 |
| O=C1c2ccccc2NC2C(O)c3ccccc3N12 (stereo unspecified) | 37.9 | > 100 | > 100 | > 100 | > 100 | 55.7 | > 100 | > 100 | > 100 | > 100 |
| N#Cc1c(N)c(-c2ccc(Cl)cc2)c(F)c2ccccc12 | > 100 | > 100 | > 100 | > 100 | > 100 | > 100 | > 100 | > 100 | > 100 | > 100 |
| CCCCCCCCCCCCC(=O)NCC(=O)NC(Cc1ccccc1)C(=O)Oc1ccc([N+](=O)[O-])cc1 (stereo unspecified) | > 100 | > 100 | 31.9 | > 100 | > 100 | > 100 | – | > 100 | > 100 | > 100 |
